What was measured:
EGFR [1] = molecular target: T1, EGFR (Homo sapiens, UniProt P00533, L858R/T790M); test: Cell Degradation 1: EGFR degradation in H1975 cells, HTRF assay; format: cell-based; conditions: 16 h treatment, EGFR degradation by HTRF
T1 construct: endogenous in cells; host or cells: H1975
Procedure: After 16 h treatment, add 100 μl 1×lysis buffer to each well; seal the plate and incubate 1 hour at room temperature on a plate shaker; Once the cells are lysed, 16 μL of cell lysate are transferred to a PE 384-well HTRF detection plate; 4 μL of pre-mixed HTRF antibodies are added to each well; Cover the plate with a plate sealer, spin 1000 rpm for 1 min, Incubate overnight at room temperature; Read on BMG PheraStar with HTRF protocol (337 nm-665 nm-620 nm).
(§1) The IC50 (DC50) value of a compound can be obtained by fitting the following equation Y=Bottom+(TOP−Bottom)/(1+((IC50/X)^hillslope))
(§2) Wherein, X and Y are known values, and IC50, Hillslope, Top and Bottom are the parameters obtained by fitting with software. Y is the inhibition percentage (calculated from the equation), X is the concentration of the compound; IC50 is the concentration of the compound when the 50% inhibition is reached. The smaller the IC50 value is, the stronger the inhibitory ability of the compound is. Vice versa, the higher the IC50 value is, the weaker the ability the inhibitory ability of the compound is; Hillslope represents the slope of the fitted curve, generally around 1*; Bottom represents the minimum value of the curve obtained by data fitting, which is generally 0%±20%; Top represents the maximum value of the curve obtained by data fitting, which is generally 100%±20%. The experimental data were fitted by calculating and analyzing with Dotmatics data analysis software.

EGFR [2] = molecular target: T2, EGFR (Homo sapiens, UniProt P00533, DEL746-750); test: Cell Degradation 2: EGFR degradation in HCC827 cells, HTRF assay; format: cell-based; conditions: 16 h treatment, EGFR degradation by HTRF
T2 construct: endogenous in cells; host or cells: HCC827
T2 sequence (P00533 with tags, fused parts or gaps DEL746-750): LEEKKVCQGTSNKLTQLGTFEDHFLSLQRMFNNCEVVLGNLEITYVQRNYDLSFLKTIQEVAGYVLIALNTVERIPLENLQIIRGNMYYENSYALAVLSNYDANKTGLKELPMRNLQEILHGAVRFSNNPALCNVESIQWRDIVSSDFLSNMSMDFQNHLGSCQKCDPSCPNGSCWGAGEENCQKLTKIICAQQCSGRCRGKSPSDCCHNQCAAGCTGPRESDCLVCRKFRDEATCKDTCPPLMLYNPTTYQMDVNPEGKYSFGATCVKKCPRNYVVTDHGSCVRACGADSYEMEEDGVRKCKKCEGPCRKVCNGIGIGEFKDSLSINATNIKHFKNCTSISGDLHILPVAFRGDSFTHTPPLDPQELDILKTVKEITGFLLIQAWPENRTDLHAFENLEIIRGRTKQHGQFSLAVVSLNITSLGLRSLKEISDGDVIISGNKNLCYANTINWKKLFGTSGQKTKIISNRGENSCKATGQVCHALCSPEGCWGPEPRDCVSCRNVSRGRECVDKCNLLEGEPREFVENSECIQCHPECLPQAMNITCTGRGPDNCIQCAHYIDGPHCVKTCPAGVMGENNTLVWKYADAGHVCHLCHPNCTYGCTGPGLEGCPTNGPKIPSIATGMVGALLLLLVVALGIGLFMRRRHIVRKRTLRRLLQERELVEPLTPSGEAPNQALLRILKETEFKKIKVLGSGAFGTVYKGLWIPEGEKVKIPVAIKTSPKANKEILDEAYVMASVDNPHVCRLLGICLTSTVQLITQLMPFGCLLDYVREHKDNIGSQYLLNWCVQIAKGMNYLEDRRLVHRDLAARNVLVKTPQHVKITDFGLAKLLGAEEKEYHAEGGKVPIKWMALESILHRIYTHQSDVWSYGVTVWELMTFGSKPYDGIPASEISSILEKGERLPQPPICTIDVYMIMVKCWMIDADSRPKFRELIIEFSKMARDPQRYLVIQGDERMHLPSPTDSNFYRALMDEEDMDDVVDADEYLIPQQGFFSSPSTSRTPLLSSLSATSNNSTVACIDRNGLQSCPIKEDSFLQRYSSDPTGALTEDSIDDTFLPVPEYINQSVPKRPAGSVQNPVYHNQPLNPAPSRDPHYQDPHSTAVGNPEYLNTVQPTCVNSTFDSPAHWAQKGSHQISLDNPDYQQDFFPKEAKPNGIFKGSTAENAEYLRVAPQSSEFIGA
T2 sequence (Q96SW2 whole entry partner): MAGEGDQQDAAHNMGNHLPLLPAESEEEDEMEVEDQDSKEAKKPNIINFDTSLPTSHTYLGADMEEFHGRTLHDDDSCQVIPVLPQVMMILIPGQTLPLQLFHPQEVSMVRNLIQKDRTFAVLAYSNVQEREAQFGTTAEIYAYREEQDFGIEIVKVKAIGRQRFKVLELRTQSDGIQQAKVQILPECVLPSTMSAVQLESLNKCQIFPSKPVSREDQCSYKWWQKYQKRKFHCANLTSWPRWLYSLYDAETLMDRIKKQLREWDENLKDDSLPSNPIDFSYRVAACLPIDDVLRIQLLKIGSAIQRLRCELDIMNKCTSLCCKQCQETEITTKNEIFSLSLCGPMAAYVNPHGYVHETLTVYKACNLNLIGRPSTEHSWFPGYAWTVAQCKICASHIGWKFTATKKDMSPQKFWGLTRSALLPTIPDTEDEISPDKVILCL
Procedure: After 16 h treatment, add 100 μl 1×lysis buffer to each well; seal the plate and incubate 1 hour at room temperature on a plate shaker; Once the cells are lysed, 16 μl diluted (2 μL to 14 μl 1× lysisi buffer) cell lysate are transferred to a PE 384-well HTRF detection plate; 4 μL of pre-mixed HTRF antibodies are added to each well; Cover the plate with a plate sealer, spin 1000 rpm for 1 min, Incubate overnight at room temperature; Read on BMG PheraStar with HTRF protocol (337 nm-665 nm-620 nm).
as §1, §2

T1 sequence (P00533 25-1210 T790M/L858R): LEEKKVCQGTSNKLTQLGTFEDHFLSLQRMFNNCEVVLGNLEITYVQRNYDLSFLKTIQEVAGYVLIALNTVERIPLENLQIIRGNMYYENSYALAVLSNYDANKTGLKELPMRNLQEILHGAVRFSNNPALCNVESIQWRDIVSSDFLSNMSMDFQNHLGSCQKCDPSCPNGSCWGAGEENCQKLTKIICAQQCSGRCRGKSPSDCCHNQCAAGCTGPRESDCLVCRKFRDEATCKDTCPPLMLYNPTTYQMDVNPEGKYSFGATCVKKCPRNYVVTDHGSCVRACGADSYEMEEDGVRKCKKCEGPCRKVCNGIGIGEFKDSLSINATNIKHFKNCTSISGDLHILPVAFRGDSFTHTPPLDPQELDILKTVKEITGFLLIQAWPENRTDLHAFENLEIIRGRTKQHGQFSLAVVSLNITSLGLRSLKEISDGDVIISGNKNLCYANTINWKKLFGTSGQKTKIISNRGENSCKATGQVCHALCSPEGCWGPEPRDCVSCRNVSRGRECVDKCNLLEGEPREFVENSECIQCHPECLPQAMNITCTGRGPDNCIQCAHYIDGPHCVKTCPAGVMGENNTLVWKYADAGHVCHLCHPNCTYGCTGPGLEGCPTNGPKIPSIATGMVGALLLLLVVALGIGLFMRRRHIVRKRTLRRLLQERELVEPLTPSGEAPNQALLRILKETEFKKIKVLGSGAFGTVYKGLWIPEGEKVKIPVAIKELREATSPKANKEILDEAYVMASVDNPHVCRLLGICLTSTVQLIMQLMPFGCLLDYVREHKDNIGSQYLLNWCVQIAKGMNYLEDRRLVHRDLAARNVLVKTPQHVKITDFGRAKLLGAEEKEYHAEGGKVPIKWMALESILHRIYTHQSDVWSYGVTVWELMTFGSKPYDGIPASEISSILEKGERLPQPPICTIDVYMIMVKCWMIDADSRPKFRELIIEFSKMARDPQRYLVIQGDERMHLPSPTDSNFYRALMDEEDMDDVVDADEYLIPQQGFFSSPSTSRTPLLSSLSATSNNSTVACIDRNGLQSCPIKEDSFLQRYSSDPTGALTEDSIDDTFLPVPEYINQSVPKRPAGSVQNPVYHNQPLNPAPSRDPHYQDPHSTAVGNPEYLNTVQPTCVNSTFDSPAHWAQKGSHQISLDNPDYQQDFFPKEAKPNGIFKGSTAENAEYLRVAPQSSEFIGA

Row | DC50 (EGFR [1]) | DC50 (EGFR [2]) | Compound
1 | 11.1 nM | 29.3 nM | CS(=O)(=O)N1CCc2cccc(Nc3nc(Nc4ccc(N5CCC(N6CCN(CC[C@H]7CCN(c8ccc(C9CCC(=O)NC9=O)cc8)C7)CC6)CC5)c(F)c4)nc4[nH]ccc34)c21 (stereo partly drawn) [Example 13, 3-(4-((S)-3-(2-(4-(1-(2-fluoro-4-((4-((1-(methylsulfonyl)indolin-7-yl)amino)-7H-pyrrolo[2,3-d]pyrimidin-2-yl)amino)phenyl)piperidin-4-yl)piperazin-1-yl)ethyl)pyrrolidin-1-yl)phenyl)piperidine-2,6-dione]
2 | 10.8 nM | 29.8 nM | CS(=O)(=O)N1CCc2cccc(Nc3nc(Nc4ccc(N5CCC(N6CCN(CCc7ccc(C8CCC(=O)NC8=O)c(F)c7F)CC6)CC5)c(F)c4)nc4[nH]ccc34)c21 (centres unmarked) [Example 69, 3-(2,3-difluoro-4-(2-(4-(1-(2-fluoro-4-((4-((1-(methylsulfonyl)indolin-7-yl)amino)-7H-pyrrolo[2,3-d]pyrimidin-2-yl)amino)phenyl)piperidin-4-yl)piperazin-1-yl)ethyl)phenyl)piperidine-2,6-dione]
3 | 9 nM | 62.6 nM | CS(=O)(=O)N1CCc2cccc(Nc3nc(Nc4ccc(N5CCC(N6CCN(CCOc7cccc(C8CCC(=O)NC8=O)c7)CC6)CC5)c(F)c4)nc4[nH]ccc34)c21 (centres unmarked) [Example 5, 3-(3-(2-(4-(1-(2-fluoro-4-((4-((1-(methylsulfonyl)indolin-7-yl)amino)-7H-pyrrolo[2,3-d]pyrimidin-2-yl)amino)phenyl)piperidin-4-yl)piperazin-1-yl)ethoxy)phenyl)piperidine-2,6-dione]
4 | 2.8 nM | 17.7 nM | CS(=O)(=O)N1CCc2cccc(Nc3nc(Nc4ccc(N5CCC(N6CCN(C(=O)C7CN(c8ccc(C9CCC(=O)NC9=O)cc8)C7)CC6)CC5)c(F)c4)nc4[nH]ccc34)c21 (centres unmarked) [Example 58, 3-(4-(3-(4-(1-(2-fluoro-4-((4-((1-(methylsulfonyl)indolin-7-yl)amino)-7H-pyrrolo[2,3-d]pyrimidin-2-yl)amino)phenyl)piperidin-4-yl)piperazine-1-carbonyl)azetidin-1-yl)phenyl)piperidine-2,6-dione]
5 | 5.7 nM | 19.4 nM | CS(=O)(=O)N1CCc2cccc(Nc3nc(Nc4ccc(N5CCC(N6CCN(C(=O)CC7CN(c8ccc9c(c8)C(=O)N(C8CCC(=O)NC8=O)C9=O)C7)CC6)CC5)c(F)c4)nc4[nH]ccc34)c21 (centres unmarked) [Example 61, 2-(2,6-dioxopiperidin-3-yl)-5-(3-(2-(4-(1-(2-fluoro-4-((4-((1-(methylsulfonyl)indolin-7-yl)amino)-7H-pyrrolo[2,3-d]pyrimidin-2-yl)amino)phenyl)piperidin-4-yl)piperazin-1-yl)-2-oxoethyl)azetidin-1-yl)isoindoline-1,3-dione]
6 | 7.4 nM | 29.3 nM | CN(CCN1CCN(C2CCN(c3ccc(Nc4nc(Nc5cccc6c5N(S(C)(=O)=O)CC6)c5cc[nH]c5n4)cc3F)CC2)CC1)c1cccc(C2CCC(=O)NC2=O)c1 (centres unmarked) [Example 6, 3-(3-((2-(4-(1-(2-fluoro-4-((4-((1-(methylsulfonyl)indolin-7-yl)amino)-7H-pyrrolo[2,3-d]pyrimidin-2-yl)amino)phenyl)piperidin-4-yl)piperazin-1-yl)ethyl)(methyl)amino)phenyl)piperidine-2,6-dione]
7 | 38.4 nM | 113 nM | COc1cc(N2CCC(N3CCN(CCc4ccc(C5CCC(=O)NC5=O)cc4)CC3)CC2)ccc1Nc1nc(Nc2cccc3c2N(S(C)(=O)=O)CC3)c2cc[nH]c2n1 (centres unmarked) [Example 21, 3-(4-(2-(4-(1-(3-methoxy-4-((4-((1-(methylsulfonyl)indolin-7-yl)amino)-7H-pyrrolo[2,3-d]pyrimidin-2-yl)amino)phenyl)piperidin-4-yl)piperazin-1-yl)ethyl)phenyl)piperidine-2,6-dione]
8 | 20.7 nM | 16.7 nM | COc1cc(N2CCC(N3CCN(CCC4CCN(c5ccc(C6CCC(=O)NC6=O)cc5)CC4)CC3)CC2)c(C)cc1Nc1ncc(Br)c(Nc2cccc3c2N(S(C)(=O)=O)CC3)n1 (centres unmarked) [Example 41, 3-(4-(4-(2-(4-(1-(4-((5-bromo-4-((1-(methylsulfonyl)indolin-7-yl)amino)pyrimidin-2-yl)amino)-5-methoxy-2-methylphenyl)piperidin-4-yl)piperazin-1-yl)ethyl)piperidin-1-yl)phenyl)piperidine-2,6-dione]
9 | 9.9 nM | 24.7 nM | CS(=O)(=O)N1CCc2cccc(Nc3nc(Nc4ccc(N5CCC(N6CCN(CCc7ccc(C8CCC(=O)NC8=O)cc7)CC6)CC5)c(F)c4)nc4[nH]ccc34)c21 (centres unmarked) [Example 1, 3-(4-(2-(4-(1-(2-fluoro-4-((4-((1-(methylsulfonyl)indolin-7-yl)amino)-7H-pyrrolo[2,3-d]pyrimidin-2-yl)amino)phenyl)piperidin-4-yl)piperazin-1-yl)ethyl)phenyl)piperidine-2,6-dione]
10 | 10.6 nM | 33.6 nM | CS(=O)(=O)N1CCc2cccc(Nc3nc(Nc4ccc(N5CCN(CCC6CCN(c7ccc(C8CCC(=O)NC8=O)cc7)CC6)CC5)c(F)c4)nc4[nH]ccc34)c21 (centres unmarked) [Example 27, 3-(4-(4-(2-(4-(2-fluoro-4-((4-((1-(methylsulfonyl)indolin-7-yl)amino)-7H-pyrrolo[2,3-d]pyrimidin-2-yl)amino)phenyl)piperazin-1-yl)ethyl)piperidin-1-yl)phenyl)piperidine-2,6-dione]
11 | 9.7 nM | 14.7 nM | CS(=O)(=O)N1CCc2cccc(Nc3nc(Nc4ccc(N5CCC(N6CCN(CCOc7cccc8c7CN(C7CCC(=O)NC7=O)C8=O)CC6)CC5)c(F)c4)nc4[nH]ccc34)c21 (centres unmarked) [Example 20, 3-(4-(2-(4-(1-(2-fluoro-4-((4-((1-(methylsulfonyl)indolin-7-yl)amino)-7H-pyrrolo[2,3-d]pyrimidin-2-yl)amino)phenyl)piperidin-4-yl)piperazin-1-yl)ethoxy)-1-oxoisoindolin-2-yl)piperidine-2,6-dione]
12 | 7.1 nM | 18 nM | CS(=O)(=O)N1CCc2cccc(Nc3nc(Nc4ccc(N5CCC(N6CCN(CCc7ccc(NC8CCC(=O)NC8=O)cc7)CC6)CC5)c(F)c4)nc4[nH]ccc34)c21 (centres unmarked) [Example 66, 3-((4-(2-(4-(1-(2-fluoro-4-((4-((1-(methylsulfonyl)indolin-7-yl)amino)-7H-pyrrolo[2,3-d]pyrimidin-2-yl)amino)phenyl)piperidin-4-yl)piperazin-1-yl)ethyl)phenyl)amino)piperidine-2,6-dione]
13 | 15.5 nM | > 10000 nM | CS(=O)(=O)N1CCc2cccc(Nc3nc(Nc4ccc(N5CCC(N6CCN(CCCOc7ccc(OC8CCC(=O)NC8=O)cc7)CC6)CC5)c(F)c4)nc4[nH]ccc34)c21 (centres unmarked) [Example 4, 3-(4-(3-(4-(1-(2-fluoro-4-((4-((1-(methylsulfonyl)indolin-7-yl)amino)-7H-pyrrolo[2,3-d]pyrimidin-2-yl)amino)phenyl)piperidin-4-yl)piperazin-1-yl)propoxy)phenoxy)piperidine-2,6-dione]
14 | 9.3 nM | > 10000 nM | CS(=O)(=O)N1CCc2cccc(Nc3nc(Nc4ccc(N5CCC(N6CCN(CCC7CCN(c8ccc(C9CCC(=O)NC9=O)c(C#N)c8)CC7)CC6)CC5)c(F)c4)nc4[nH]ccc34)c21 (centres unmarked) [Example 10, 2-(2,6-dioxopiperidin-3-yl)-5-(4-(2-(4-(1-(2-fluoro-4-((4-((1-(methylsulfonyl)indolin-7-yl)amino)-7H-pyrrolo[2,3-d]pyrimidin-2-yl)amino)phenyl)piperidin-4-yl)piperazin-1-yl)ethyl)piperidin-1-yl)benzonitrile]
15 | 23.2 nM | 32.2 nM | CN(CCC1CCN(c2ccc(C3CCC(=O)NC3=O)c(F)c2)CC1)C1CCN(c2ccc(Nc3ncc(Cl)c(Nc4cccc5c4N(S(C)(=O)=O)CC5)n3)c3c2CCO3)CC1 (centres unmarked) [Example 46, 3-(4-(4-(2-((1-(7-((5-chloro-4-((1-(methylsulfonyl)indolin-7-yl)amino)pyrimidin-2-yl)amino)-2,3-dihydrobenzofuran-4-yl)piperidin-4-yl)(methyl)amino)ethyl)piperidin-1-yl)-2-fluorophenyl)piperidine-2,6-dione]
16 | 96.4 nM | 40.2 nM | COc1cc(N2CCC(N3CCN(CCC4CCN(c5ccc(C6CCC(=O)NC6=O)c(F)c5)CC4)CC3)CC2)c(C)cc1Nc1ncc(Br)c(Nc2cccc3c2N(S(C)(=O)=O)CC3)n1 (centres unmarked) [Example 90, 3-(4-(4-(2-(4-(1-(4-((5-bromo-4-((1-(methylsulfonyl)indolin-7-yl)amino)pyrimidin-2-yl)amino)-5-methoxy-2-methylphenyl)piperidin-4-yl)piperazin-1-yl)ethyl)piperidin-1-yl)-2-fluorophenyl)piperidine-2,6-dione]
